For assay [1], the target named is T1, HIF-2α (Homo sapiens, UniProt Q99814). Nature of the assay: HIF-2α Luciferase Reporter Assay (serum free) in HIF-Luc-786-0 cells. The format is cell-based. The settings on record: Opti-MEM, 786-0 reporter cells, 20 hours incubation. How it is done:
(§1) Generation of HIF-2α Luciferase 786-0 Cell Line:
(§2) Stable cell lines were generated by transducing 786-0 cells (ATCC, CRL-1932) with Cignal Lenti HIF Luc Reporter lentivirus (CLS-007L, Qiagen) according to the manufacturer's guidelines. In brief, 0.3×10^6 786-0 cells were transduced with lentivirus at a multiplicity of infection (MOI) of 25 for 24 hours. After transduction, cells were replenished with fresh RPMI 1640 Medium (Cat. No. 11875085, Thermo Fisher) supplemented with 10% FBS (Cat. No. A3160502, Gibco), 2 mM GlutaMAX™ (Cat. No. 35050-061, Invitrogen) and 100 units of penicillin and 100 μg of streptomycin/mL (Cat. No 15070063, Thermo Fisher) for another 24 hours. Antibiotic selection was performed in cell media containing 4 μg/mL of puromycin. After 7 days of antibiotic selection, stable pools of surviving cells were expanded and used in a luciferase reporter assay.
HIF-2α Luciferase Reporter Assay (Serum Free):
On day one, 20 uL of HIF-Luc-786-0 cells in Opti-MEM™ (Cat. No. 31985088, Thermo Fisher) were seeded into each well of a 384 well white opaque plate (Corning 3570) and incubated at 37° C. and 5% CO2. Twenty microliters of 2× test compounds in Opti-MEM™ were added to cells after 4 hours of incubation. Final assay conditions comprised 20,000 cells per well in 1% DMSO with test compound concentrations ranging from 50 uM to 0 uM. After 20 hours incubation at 37° C. and 5% CO2, luciferase activity was determined using ONE-Glo™ Luciferase Assay Reagent (E6110, Promega) following the manufacture's recommended procedure. Briefly, 40 uL of ONE-Glo™ luciferase reagents were added to each well and luciferase signals were measured using an Envision 2102 Multilabel Reader. Percentage maximum activity in each test well was calculated based on DMSO (maximum activity) and no cell control wells (baseline activity). The IC50 values of the test compounds were determined from compound dose response curves fitted using a standard four parameter fit equation.

Assay [2] deals with T1, HIF-2α. Nature of the assay: HIF-2α Luciferase Reporter Assay (serum), HRE-luciferase 786-0 cells in 100% human serum. The format is cell-based. The settings on record: for pIC50: 100% human serum, 786-0 reporter cells, overnight incubation, read-out: Serum Potency; for Serum Shift (approximate): ratio of IC50 in 100% serum to IC50 in serum free conditions. How it is done: as §1, §2
HIF-2α Luciferase Reporter Assay (Serum):
An HRE-luciferase stable reporter 786-0 cell line was maintained in active culture using RPMI 1640 (GIBCO) media supplemented with 1% penicillin-streptomycin, 1% GlutaMAX™, 10% FBS-One Shot (GIBCO) and 4 ug/ml of puromycin (Invitrogen). On the day of the assay, cells were harvested using StemPro™ Accutase™ cell dissociation reagent (GIBCO) and resuspended at 1.5 million cells per milliliter in Opti-MEM™ (GIBCO). 20 ul/well of the resuspended cells were dispensed into a 384 white tissue culture-treated microplate (Corning) and allowed to incubate at 37° C., 5% CO2 for 3 hours. Compounds were prepared by dispensing 0.8 ul of compound in 100% DMSO into a Greiner plate containing 40 ul/well of 100% human serum (Bioreclamation IVT). After 3 hours, media was removed via centrifugation at 500 RPM for 30 seconds and 30 ul/well of compound diluted in human serum was added. The plate was incubated overnight at 37° C., 5% CO2. The following day, ONE-Glo™ was prepared per vendors instructions. The cell plate was removed from the incubator and the human serum was removed from the plate using centrifugation at 500 RPM for 30 seconds. Following the removal of human serum, 40 ul/well of room temperature Opti-MEM™ was added to the plate and allowed to equilibrate to room temperature for 2 hours. 40 ul/well of ONE-Glo™ reagent was added and allowed to incubate for 10 minutes before reading the luminescence signal on the Envision (PerkinElmer). Data was analyzed using 4-parameter logistic equation to generate IC50.
(A reporter such as luciferase makes a cellular process visible.)

pIC50: −log10 of the molar value.

T1 sequence (Q99814 whole entry): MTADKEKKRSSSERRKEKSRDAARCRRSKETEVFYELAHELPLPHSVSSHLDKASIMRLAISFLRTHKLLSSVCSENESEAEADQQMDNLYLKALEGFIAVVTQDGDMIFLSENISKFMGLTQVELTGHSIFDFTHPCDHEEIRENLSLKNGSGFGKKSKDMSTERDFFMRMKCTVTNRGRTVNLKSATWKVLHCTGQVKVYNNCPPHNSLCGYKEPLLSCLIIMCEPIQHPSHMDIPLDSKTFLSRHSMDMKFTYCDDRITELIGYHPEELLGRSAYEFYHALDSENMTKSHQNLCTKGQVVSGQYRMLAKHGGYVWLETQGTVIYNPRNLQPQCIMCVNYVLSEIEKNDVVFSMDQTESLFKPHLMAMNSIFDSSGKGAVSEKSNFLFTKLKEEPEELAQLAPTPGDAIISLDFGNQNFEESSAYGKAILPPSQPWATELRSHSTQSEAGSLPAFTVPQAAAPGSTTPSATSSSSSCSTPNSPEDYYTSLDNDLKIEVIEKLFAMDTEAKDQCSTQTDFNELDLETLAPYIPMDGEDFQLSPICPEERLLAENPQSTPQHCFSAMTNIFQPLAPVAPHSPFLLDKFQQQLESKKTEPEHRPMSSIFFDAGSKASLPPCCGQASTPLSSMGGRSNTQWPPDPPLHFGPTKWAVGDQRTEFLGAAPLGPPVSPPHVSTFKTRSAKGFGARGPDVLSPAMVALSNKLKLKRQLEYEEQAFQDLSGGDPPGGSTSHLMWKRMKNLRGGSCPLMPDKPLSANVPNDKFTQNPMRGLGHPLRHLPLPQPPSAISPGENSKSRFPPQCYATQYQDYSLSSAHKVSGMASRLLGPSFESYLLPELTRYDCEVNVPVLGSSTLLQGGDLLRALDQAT

As to `O[C@H]1c2c(C(F)(F)F)nn([C@H]3CCC[C@@H](F)C3)c2CC1(F)F` (racemic) [90 DIAST-1, (4S)-5,5-difluoro-1-[(rel-1S,3R)-3-fluorocyclohexyl]-3-(trifluoromethyl)-4,6-dihydrocyclopenta[c]pyrazol-4-ol], the pIC50 at HIF-2α [1] was over 7.00. On HIF-2α [2], the pIC50 was 6.00 to 7.00 and the “Serum Shift (approximate)” value came out at 6.

Compound `O[C@H]1c2c(C(F)(F)F)nn([C@H]3C[C@@H](COC(F)F)C3)c2CC1(F)F` [Example 103, (4S)-1-[3-(difluoromethoxymethyl)cyclobutyl]-5,5-difluoro-3-(trifluoromethyl)-4,6-dihydrocyclopenta[c]pyrazol-4-ol] had a pIC50 on HIF-2α [1] of under 6.00. At HIF-2α [2], the pIC50 is under 6.00 and the “Serum Shift (approximate)” value is on record as 7.

Turning to `O=S(=O)(CCn1nc(C(F)(F)F)c2c1CCC(F)(F)[C@H]2O)C(F)(F)F` [Example 8, (4S)-5,5-difluoro-3-(trifluoromethyl)-1-[2-(trifluoromethylsulfonyl)ethyl]-6,7-dihydro-4H-indazol-4-ol], the pIC50 against HIF-2α [1] is over 7.00; at HIF-2α [2], 6.00 to 7.00. In addition, the “Serum Shift (approximate)” value on HIF-2α [2] turned out to be 4.

Regarding `O[C@H]1c2c(C(F)(F)F)nn([C@@H]3CCC(F)(F)[C@@H](F)C3)c2CC1(F)F` [Example 121, (4S)-5,5-difluoro-1-[(1R,3S)-3,4,4-trifluorocyclohexyl]-3-(trifluoromethyl)-4,6-dihydrocyclopenta[c]pyrazol-4-ol], the pIC50 at HIF-2α [1] is over 7.00. For the same compound, on HIF-2α [2], the pIC50 is under 6.00 and the “Serum Shift (approximate)” value is 11.

`O[C@H]1c2c(C(F)(F)F)nn([C@@H]3C[C@H](F)C[C@H](F)C3)c2CC1(F)F` [Example 89, (4S)-1-[(3R,5S)-3,5-difluorocyclohexyl]-5,5-difluoro-3-(trifluoromethyl)-4,6-dihydrocyclopenta[c]pyrazol-4-ol]: at HIF-2α [1], the pIC50 was over 7.00. Moreover, at HIF-2α [2], the pIC50 was 6.00 to 7.00 and the “Serum Shift (approximate)” value stood at 7.

On HIF-2α [1], `O[C@H]1c2c(C(F)(F)F)nn([C@@H]3C[C@@H](F)[C@@H](F)[C@@H](F)C3)c2[C@H](F)C1(F)F` (single isomer, unassigned) [146/147 DIAST-1] showed a pIC50 of over 7.00. At HIF-2α [2], the pIC50 was over 7.00 and the “Serum Shift (approximate)” value is on record as 5.

For `CS(=O)(=O)CCn1nc(C(F)(F)F)c2c1CC(F)(F)[C@H]2O` [Example 56, (4S)-5,5-difluoro-1-(2-methylsulfonylethyl)-3-(trifluoromethyl)-4,6-dihydrocyclopenta[c]pyrazol-4-ol], the pIC50 at HIF-2α [1] and at HIF-2α [2] was 6.00 to 7.00 in each case. Further, the “Serum Shift (approximate)” value at HIF-2α [2] was found to be 2.

At HIF-2α [1], `O[C@H]1c2c(C(F)(F)F)nn([C@H]3CC[C@H](F)[C@H](F)C3)c2[C@@H](F)[C@H]1F` (single isomer, unassigned) [141/142 DIAST-2] gave a pIC50 of 6.00 to 7.00. Also, on HIF-2α [2], the pIC50 is 6.00 to 7.00 and the “Serum Shift (approximate)” value is 3.

Consider `CC(C#N)CCn1nc(C(F)(F)F)c2c1CC(F)(F)[C@H]2O` (stereo partly drawn) [Example 55, 4-[(4S)-5,5-difluoro-4-hydroxy-3-(trifluoromethyl)-4,6-dihydrocyclopenta[c]pyrazol-1-yl]-2-methylbutanenitrile], for which the pIC50 against HIF-2α [1] and at HIF-2α [2] was 6.00 to 7.00 in each case. Further, the “Serum Shift (approximate)” value at HIF-2α [2] is given as 1.

As for `O=S1(=O)CC2(CC(n3nc(C(F)(F)F)c4c3CC(F)(F)[C@H]4O)C2)C1` [Example 127, (4S)-1-(2,2-dioxo-2λ^6-thiaspiro[3.3]heptan-6-yl)-5,5-difluoro-3-(trifluoromethyl)-4,6-dihydrocyclopenta[c]pyrazol-4-ol], the pIC50 against HIF-2α [1] and on HIF-2α [2] was under 6.00 throughout. The “Serum Shift (approximate)” value on HIF-2α [2] worked out at 3.

As for `O[C@H]1c2c(C(F)(F)F)nn(-c3ccc(Cl)c(F)c3)c2CC1(F)F` [Example 119, (4S)-1-(4-chloro-3-fluorophenyl)-5,5-difluoro-3-(trifluoromethyl)-4,6-dihydrocyclopenta[c]pyrazol-4-ol], the pIC50 at HIF-2α [1] is over 7.00; at HIF-2α [2] it was under 6.00. Besides, the “Serum Shift (approximate)” value at HIF-2α [2] was 73.

As to `O[C@H]1c2c(C(F)(F)F)nn([C@H]3C[C@H](COC(F)F)C3)c2CCC1(F)F` [Example 104, (4S)-1-[3-(difluoromethoxymethyl)cyclobutyl]-5,5-difluoro-3-(trifluoromethyl)-6,7-dihydro-4H-indazol-4-ol], on HIF-2α [1], the pIC50 is 6.00 to 7.00. Further, at HIF-2α [2], the pIC50 is under 6.00 and the “Serum Shift (approximate)” value was 20.

Turning to `O[C@H]1c2c(C(F)(F)F)nn(-c3ccc(F)c(F)c3)c2CC1(F)F` [Example 115], the figures for the pIC50 against HIF-2α [1] and on HIF-2α [2] were 6.00 to 7.00 and under 6.00, respectively. Also, the “Serum Shift (approximate)” value on HIF-2α [2] worked out at 45.

Regarding `O[C@H]1c2c(C(F)(F)F)nn(CCCOC(F)(F)F)c2C[C@H]1F` [Example 62, (4S,5R)-5-fluoro-1-[3-(trifluoromethoxy)propyl]-3-(trifluoromethyl)-5,6-dihydro-4H-cyclopenta[c]pyrazol-4-ol], the pIC50 against HIF-2α [1] was 6.00 to 7.00. Besides, at HIF-2α [2], the pIC50 was 6.00 to 7.00 and the “Serum Shift (approximate)” value worked out at 2.

On HIF-2α [1], `O=S1(=O)CC(Cn2nc(C(F)(F)F)c3c2[C@@H](F)C(F)(F)[C@H]3O)C1` (single isomer, unassigned) [144/145 DIAST-2] had a pIC50 of 6.00 to 7.00. Also, at HIF-2α [2], the pIC50 was 6.00 to 7.00 and the “Serum Shift (approximate)” value amounted to 3.

With `O[C@H]1c2c(C(F)(F)F)nn(CCc3ccoc3)c2CC1(F)F` [Example 78, (4S)-5,5-difluoro-1-[2-(furan-3-yl)ethyl]-3-(trifluoromethyl)-1H,4H,5H,6H-cyclopenta[c]pyrazol-4-ol], the pIC50 against HIF-2α [1] is over 7.00. In addition, on HIF-2α [2], the pIC50 is under 6.00 and the “Serum Shift (approximate)” value was 8.

`O[C@H]1c2c(C(F)(F)F)nn([C@@H]3CC[C@@H](F)[C@@H](F)C3)c2CC1(F)F` (single isomer, unassigned) [72/73 DIAST-1]: the pIC50 was over 7.00 against HIF-2α [1] and 6.00 to 7.00 on HIF-2α [2]. Besides, the “Serum Shift (approximate)” value at HIF-2α [2] is 8.

As to `O[C@H]1c2c(C(F)(F)F)nn(CCSC(F)F)c2CCC1(F)F` [Example 18, (4S)-1-[2-(difluoromethylsulfanyl)ethyl]-5,5-difluoro-3-(trifluoromethyl)-6,7-dihydro-4H-indazol-4-ol], on HIF-2α [1], the pIC50 was 6.00 to 7.00. On HIF-2α [2], the pIC50 was 6.00 to 7.00 and the “Serum Shift (approximate)” value came to 4.

As to `O[C@H]1c2c(C(F)(F)F)nn(CCCOC(F)(F)F)c2CCC1(F)F` [Example 30, (4S)-5,5-difluoro-1-[3-(trifluoromethoxy)propyl]-3-(trifluoromethyl)-6,7-dihydro-4H-indazol-4-ol], the pIC50 is over 7.00 on HIF-2α [1] and 6.00 to 7.00 on HIF-2α [2]. The “Serum Shift (approximate)” value at HIF-2α [2] was determined as 8.

With `O[C@H]1c2c(C(F)(F)F)nn(CCc3ccco3)c2CC1(F)F` [Example 77, (4S)-5,5-difluoro-1-[2-(furan-2-yl)ethyl]-3-(trifluoromethyl)-1H,4H,5H,6H-cyclopenta[c]pyrazol-4-ol], the results for the pIC50 at HIF-2α [1] and on HIF-2α [2] were over 7.00 and under 6.00, respectively. For the same compound, the “Serum Shift (approximate)” value on HIF-2α [2] is 10.

`O[C@H]1c2c(C(F)(F)F)nn(CCC3CC3(F)F)c2[C@@H](F)[C@H]1F` (stereo partly drawn) [Example 152, (4S,5S,6R)-1-[2-(2,2-difluorocyclopropyl)ethyl]-5,6-difluoro-3-(trifluoromethyl)-5,6-dihydro-4H-cyclopenta[c]pyrazol-4-ol] had a pIC50 against HIF-2α [1] of 6.00 to 7.00. Besides, on HIF-2α [2], the pIC50 was 6.00 to 7.00 and the “Serum Shift (approximate)” value was 3.

The record behind these values is patent publication US12071411B2, “Inhibitors of HIF-2α and methods of use thereof” (ARCUS BIOSCIENCES, INC., priority 2021, dated 2024).
